Results reported in ChEMBL document CHEMBL1158087, “Gracilarioside and gracilamides from the red alga Gracilaria asiatica” (2006).

Columns and labels:
[1] = Cytotoxicity against human A375S2 cells assessed as induction of cell death at 30 ug/mL by MTT assay; type: functional, A375-S2
[2] = Cytotoxicity against human A375S2 cells assessed as induction of cell death at 20 ug/mL by MTT assay; type: functional, A375-S2

SMILES | Activity [1] [%] | Activity [2] [%]
CCCCCCCCCCCCCCCCCCCCCCC[C@@H](O)C(=O)N[C@@H](CO)[C@H](O)[C@H](O)C/C=C/CCCCC1CC1CCCC (stereo partly drawn) [GRACILAMIDE A] | 11.7 | 
CCCCCCCCCCCCCCCCCCCCCCC[C@@H](O)C(=O)N[C@@H](CO[C@@H]1O[C@H](CO)[C@@H](O)[C@H](O)[C@H]1O)[C@H](O)[C@H](O)C/C=C/CCCCC1CC1CCCC (stereo partly drawn) [GRACILARIOSIDE] |  | 18.2
CCCCCCCCCCCCCCCCCCCCCC[C@@H](O)[C@@H](O)[C@H](CO)NC(=O)[C@H](O)CCCCCCCCC1CC1CCCC (stereo partly drawn) [GRACILAMIDE B] | 11.7 | 
